Assay results taken from the NIST ThermoML archive (doi:10.1016/j.fluid.2014.01.034).
Numbers after ± are expanded uncertainties.

Key:
[1] = for mass density: 348.15 K, 101.33 kPa, Liquid, Vibrating tube method; for Normal melting temperature: Crystal, DTA
[2] = Boiling temperature at pressure P; details: Liquid, Ebulliometric method (Recirculating still)
[3] = Molar enthalpy of transition or fusion; details: Crystal; DSC

O=[N+]([O-])c1cccc(Cl)c1Cl [1,2-dichloro-3-nitrobenzene]
Details	Molar enthalpy of transition or fusion [kJ/mol]	Normal melting temperature [°C]	mass density [kg/m3]
[1]	–	61.8 ± 1.1	1533 ± 2
[3]	22.3 ± 1.4	–	–

[2]
Details	Boiling temperature at pressure P [°C]
3.26 kPa	148.61 ± 0.39
3.72 kPa	151.73 ± 0.37
4.07 kPa	153.89 ± 0.35
5.48 kPa	161.26 ± 0.29
6.14 kPa	164.16 ± 0.24
7.17 kPa	168.22 ± 0.21
8.84 kPa	174 ± 0.19
10.02 kPa	177.31 ± 0.16
11.41 kPa	180.98 ± 0.15
12.61 kPa	183.86 ± 0.14
13.71 kPa	186.30 ± 0.13
15.55 kPa	190.1 ± 0.12
16.52 kPa	191.88 ± 0.11
18.33 kPa	195.16 ± 0.11
20.52 kPa	198.69 ± 0.1
21.66 kPa	200.30 ± 0.09
22.76 kPa	201.89 ± 0.09
25.1 kPa	205.06 ± 0.09
27.58 kPa	208.17 ± 0.08
30.63 kPa	211.69 ± 0.08
35.11 kPa	216.38 ± 0.07
40.91 kPa	221.76 ± 0.07
46.97 kPa	226.77 ± 0.06
50.86 kPa	229.71 ± 0.06
54.85 kPa	232.54 ± 0.06
57.81 kPa	234.64 ± 0.06
61.11 kPa	236.77 ± 0.06
63.43 kPa	238.11 ± 0.05
65.25 kPa	239.22 ± 0.05
70.98 kPa	242.53 ± 0.05
76.92 kPa	245.8 ± 0.05
80.62 kPa	247.66 ± 0.05
85.76 kPa	250.19 ± 0.05
91.3 kPa	252.79 ± 0.05
96.08 kPa	254.94 ± 0.05
101.3 kPa	257.18 ± 0.05

O=[N+]([O-])c1ccc(Cl)c(Cl)c1 [3,4-dichloro-1-nitrobenzene]
Details	Molar enthalpy of transition or fusion [kJ/mol]	Normal melting temperature [°C]	mass density [kg/m3]
[1]	–	42.2 ± 1.1	1533 ± 2
[3]	17.8 ± 1.1	–	–

[2]
Details	Boiling temperature at pressure P [°C]
3.01 kPa	143.59 ± 0.39
4.22 kPa	151.87 ± 0.37
4.98 kPa	156.10 ± 0.3
5.82 kPa	160.09 ± 0.26
6.97 kPa	164.90 ± 0.24
7.4 kPa	166.54 ± 0.2
9.08 kPa	172.28 ± 0.19
9.77 kPa	174.29 ± 0.16
11.5 kPa	178.94 ± 0.16
12.15 kPa	180.66 ± 0.14
13.41 kPa	183.46 ± 0.13
15.01 kPa	186.98 ± 0.13
16.24 kPa	189.28 ± 0.12
17.48 kPa	191.66 ± 0.11
19.68 kPa	195.37 ± 0.1
21.06 kPa	197.53 ± 0.1
24.35 kPa	202.28 ± 0.09
25.56 kPa	203.78 ± 0.09
26.76 kPa	205.32 ± 0.08
31.46 kPa	210.79 ± 0.08
34.27 kPa	213.8 ± 0.08
36.87 kPa	216.33 ± 0.07
41.72 kPa	220.8 ± 0.07
45.99 kPa	224.32 ± 0.07
51.49 kPa	228.52 ± 0.06
55.34 kPa	231.23 ± 0.06
61.61 kPa	235.37 ± 0.06
65.28 kPa	237.58 ± 0.06
70.2 kPa	240.51 ± 0.06
74.34 kPa	242.70 ± 0.06
79.67 kPa	245.50 ± 0.06
83.95 kPa	247.64 ± 0.06
89.76 kPa	250.37 ± 0.06
94.77 kPa	252.61 ± 0.06
98.14 kPa	254.08 ± 0.06
101.3 kPa	255.44 ± 0.06
